What was measured:
[1] = molecular target: T1, cloned human 5-HT6 receptor (Homo sapiens, UniProt P50406); experiment: 5-HT6 Receptor Binding Assay; conditions: [3H]-lysergic acid diethylamide (LSD) radioligand, membranes of Hela cells containing the cloned human 5-HT6 receptor, SPA beads; estimated IC50 converted to Ki by Cheng-Prusoff
T1 construct: host or cells: HeLa cells (G-418 selection), membrane preparation
Procedure: 5-HT6 Receptor Binding Assay
Growth of Cells and Membrane Preparation
Hela cells containing the cloned human 5-HT6 receptor were acquired from Dr. David R. Sibley's laboratory in National Institute of Health (see Sibley, D. R., J. Neurochemistry, 66, 47-56, 1996). Cells were grown in high glucose Dulbecco's modified Eagle's medium, supplemented with L-glutamine, 0.5% sodium pyruvate, 0.3% penicillin-streptomycin, 0.025% G-418 and 5% Gibco fetal bovine serum and then were harvested, when confluent, in cold phosphate-buffered saline.
Harvested intact cells were washed once in cold phosphate-buffered saline. The cells were pelleted and resuspended in 100 ml of cold 50 mM Tris, 5 mM EDTA and 5 mM EGTA, pH 7.4. Homogenization was with a Vir Tishear generator, 4 cycles for 30 seconds each at setting 50. The homogenized cells were centrifuged at 700 RPM (1000×g) for 10 minutes and the supernatant was removed. The pellet was resuspended in 100 ml of the above buffer and rehomogenized for 2 cycles. The rehomogenized cells were then centrifuged at 700 RPM (1000×g) for 10 minutes and the supernatant was removed. The combined supernatant (200ml) was centrifuged at 23,000 RPM (80,000×g) for 1 hour in a Beckman Rotor (42.1 Ti). The membrane pellet was resupended in 50-8-ml of assay buffer containing HEPES 20 mM, MgCl2 10 mM, NaCl 150 mM, EDTA 1 mM, pH 7.4 and stored frozen in aliqouts at −70° C.
The radioligand binding assay used [^3H]-lysergic acid diethylamide (LSD). The assay was carried out in Wallac 96-well sample plates by the addition of 11 μl of the test sample at the appropriate dilution (the assay employed 11 serial concentrations of samples run in duplicate), 11 μl of radioligand, and 178 μl of a washed mixture of WGA-coated SPA beads and membranes in binding buffer. The plates were shaken for about 5 minutes and then incubated at room temperature for 1 hour. The plates were then loaded into counting cassettes and counted in a Wallac MicroBeta Trilux scintillation counter.
Binding Constant (Ki) Determination
Eleven serial dilutions of test compounds were distributed to assay plates using the PE/Cetus Pro/Pette pipetter. These dilutions were, followed by radioligand and the bead-membrane mixture prepared as described above. The specifically bound cpm obtained were fit to a one-site binding model using GraphPad Prism ver. 2.0. Estimated IC50 values were converted to Ki values using the Cheng-Prusoff equation (Cheng, Y. C. et al., Biochem. Pharmacol., 22, 3099-108, 1973).

T1 sequence (P50406 whole entry): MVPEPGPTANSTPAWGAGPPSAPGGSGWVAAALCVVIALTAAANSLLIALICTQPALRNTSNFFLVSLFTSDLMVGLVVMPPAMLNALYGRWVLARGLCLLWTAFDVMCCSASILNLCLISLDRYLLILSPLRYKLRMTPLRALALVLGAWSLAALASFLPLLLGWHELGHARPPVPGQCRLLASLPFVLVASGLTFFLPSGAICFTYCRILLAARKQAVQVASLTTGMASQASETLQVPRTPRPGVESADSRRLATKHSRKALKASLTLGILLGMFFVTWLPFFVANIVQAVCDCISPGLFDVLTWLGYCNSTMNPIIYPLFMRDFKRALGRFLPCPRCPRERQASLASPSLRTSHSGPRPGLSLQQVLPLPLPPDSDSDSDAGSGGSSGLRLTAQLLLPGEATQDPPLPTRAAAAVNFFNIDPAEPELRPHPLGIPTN

Cc1ccc2c(c1)c1c(OCCN)cccc1n2Cc1ccccc1.O=C(O)/C=C\C(=O)O [Example 46, 2-[(9-Benzyl-6-methyl-9H-carbazol-4-yl)oxy]ethylamine]
Ki [1]: 6.1 nM | melting point: 187.5 to 188 °C

CNCCOc1cccc2c1c1cc(C)ccc1n2Cc1ccccc1 [Example 47, N-{2-[(9-Benzyl-6-methyl-9H-carbazol-4-yl)oxy]ethyl}-N-methylamine]
Ki [1]: 2.2 nM | melting point: 96 to 96.75 °C

O=C(O)/C=C\C(=O)O.OCCNCCOc1cccc2c1c1ccccc1n2Cc1ccccc1 [Example 49, 2-({2-[(9-benzyl-9H-carbazol-4-yl)oxy]ethyl}amino)-1-ethanol]
Ki [1]: 4.5 nM | melting point: 160 °C

— patent US6514968B1, “Aminoalkoxy carbazoles for the treatment of cns diseases” (Pharmacia & Upjohn Company, priority 1999, dated 2003)
